Assay results reported in PMC2647841, “Sulfatide Recognition by Colonization Factor Antigen CS6 from Enterotoxigenic Escherichia coli” (PLoS ONE, 2009).

Target: T1, CS6 protein (coli surface antigen 6; CS6 adhesin) (Escherichia coli, UniProt P53510)
T1 construct: gene cssB; CS6 complex (CssA and CssB structural subunits; operon cssA-cssD, recombinant plasmid pJT-CS6), no tag stated; secreted by E. coli TOP10-CS6, ammonium sulfate precipitate of culture supernatant; 125I-labelled; with CS6 fimbrial subunit A
Assay: microtiter well binding of […]-labelled CS6 to coated glycosphingolipid
Details: amount of glycosphingolipid coated per well, not a concentration; room temperature, 4 h

T1 sequence (P53508 19-154): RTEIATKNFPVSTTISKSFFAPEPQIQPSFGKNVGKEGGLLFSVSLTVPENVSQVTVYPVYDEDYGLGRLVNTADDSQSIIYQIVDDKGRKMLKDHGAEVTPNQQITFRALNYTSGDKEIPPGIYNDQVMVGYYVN
T1 sequence (P53510 22-167): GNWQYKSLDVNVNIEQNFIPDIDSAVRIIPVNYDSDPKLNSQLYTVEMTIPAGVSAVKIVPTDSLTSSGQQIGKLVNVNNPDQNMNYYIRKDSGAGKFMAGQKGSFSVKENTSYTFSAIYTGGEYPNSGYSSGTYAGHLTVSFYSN

Substance: Sulfatide [compound 3]
- half-maximal binding: ~ 100 ng
